Assay results as given in PubChem BioAssay (NCI).
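Grown in 96-well plates, cells were treated for 48 hours with each compound at five concentrations. Insufficient inhibition: endpoint recorded as highest concentration tested. TGI marks complete inhibition of growth.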

Experiments:
Test in all cases: NCI-60 cell line screen, 48 h
786-0 renal = test system: 786-0 renal
A549 NSCLC = test system: A549 NSCLC
HCT-15 colon = test system: HCT-15 colon
HOP-62 NSCLC = test system: HOP-62 NSCLC
HS 578T breast = test system: HS 578T breast
HT29 colon = test system: HT29 colon
LOX IMVI melanoma = test system: LOX IMVI melanoma
MDA-MB-231 breast = test system: MDA-MB-231 breast
MOLT-4 leukemia = test system: MOLT-4 leukemia
NCI-H226 lung = test system: NCI-H226 lung
NCI-H23 lung = test system: NCI-H23 lung
NCI-H522 lung = test system: NCI-H522 lung
OVCAR-5 ovarian = test system: OVCAR-5 ovarian
PC-3 prostate = test system: PC-3 prostate
SF-295 CNS = test system: SF-295 CNS
SF-539 CNS = test system: SF-539 CNS
SK-MEL-2 melanoma = test system: SK-MEL-2 melanoma
SK-MEL-28 melanoma = test system: SK-MEL-28 melanoma
MCF7 breast = test system: MCF7 breast
UO-31 renal = test system: UO-31 renal

Compound	TGI (786-0 renal)	TGI (A549 NSCLC)	TGI (HCT-15 colon)	TGI (HOP-62 NSCLC)	TGI (HS 578T breast)	TGI (HT29 colon)	TGI (LOX IMVI melanoma)	TGI (MDA-MB-231 breast)	TGI (MOLT-4 leukemia)	TGI (NCI-H226 lung)	TGI (NCI-H23 lung)	TGI (NCI-H522 lung)	TGI (OVCAR-5 ovarian)	TGI (PC-3 prostate)	TGI (SF-295 CNS)	TGI (SF-539 CNS)	TGI (SK-MEL-2 melanoma)	TGI (SK-MEL-28 melanoma)	TGI (MCF7 breast)	TGI (UO-31 renal)
C=CCN(c1cc(OCc2ccccc2)c2c(c1)c(C)cn2S(=O)(=O)c1ccccc1)S(C)(=O)=O	> 100 µM	> 100 µM	> 100 µM	> 100 µM	> 100 µM	> 100 µM	> 100 µM	> 100 µM	> 100 µM	> 100 µM	> 100 µM	> 100 µM	> 100 µM	> 100 µM	> 100 µM	> 100 µM	> 100 µM	> 100 µM		
COc1cc(/C=C2/C(=O)N=C(NC(C)=O)N2C)ccc1OC(C)=O	> 100 µM	> 100 µM	> 100 µM	> 100 µM		> 100 µM	> 100 µM	> 100 µM	> 100 µM	> 100 µM	> 100 µM		> 100 µM	> 100 µM	> 100 µM	> 100 µM	> 100 µM	> 100 µM	> 100 µM	> 100 µM
Cc1cc(S(=O)(=O)Nc2nc(N)nc(N(C)C)n2)c(SC(C(=O)O)c2ccccc2)cc1Cl (stereo not given)	> 10 µM	> 10 µM	> 10 µM	> 10 µM	> 10 µM	> 10 µM	> 10 µM		> 10 µM	> 10 µM	> 10 µM	> 10 µM	> 10 µM	> 10 µM	> 10 µM	> 10 µM	> 10 µM	> 10 µM	> 10 µM	> 10 µM
NC(N)=NCCCC(NCc1c2ccccc2[n+]([O-])c2ccccc12)C(=O)O (stereo not given)	> 100 µM	> 100 µM	> 100 µM	> 100 µM		> 100 µM	> 100 µM		> 100 µM	> 100 µM	> 100 µM	> 100 µM	> 100 µM		> 100 µM		> 100 µM	> 100 µM		89.8 µM
CC(C(=O)N1C(=O)N(C(=O)[C@H](C)C(O)c2ccccc2)[C@H](c2ccccc2)[C@H]1c1ccccc1)[C@@H](O)c1ccccc1 (stereo not given in full)	82.8 µM	> 100 µM	> 100 µM	> 100 µM		> 100 µM		48.9 µM		> 100 µM	> 100 µM	> 100 µM	78.3 µM	83.6 µM	> 100 µM	81.9 µM	42.6 µM	> 100 µM	> 100 µM	> 100 µM
COC(=O)C1CCC[C@H]2C(CO)=C(C)C(=O)[C@@H]12 (stereo not given in full)	> 100 µM	> 100 µM	> 100 µM	> 100 µM		> 100 µM			> 100 µM	> 100 µM	> 100 µM	> 100 µM	> 100 µM		> 100 µM	> 100 µM	> 100 µM	> 100 µM		> 100 µM
Cc1ccc(C(=O)c2[nH]c(Nc3ccc(Cl)cc3)c(C(=S)Nc3ccccc3)c2N)cc1	6.4 µM	5.29 µM	28.5 µM	15.3 µM		16.8 µM	14.3 µM	24.2 µM	32.6 µM	43.4 µM	9.1 µM	23.6 µM	40.9 µM	23.3 µM	5.27 µM	17.7 µM	31.7 µM	14.5 µM	33.6 µM	23 µM
CCOc1ccc(N=Nc2c(-c3ccccc3)nn(C(=O)CC(=O)Nc3cccc(C)c3)c2-c2ccccc2)cc1	> 100 µM	> 100 µM		> 100 µM		> 100 µM	> 100 µM		> 100 µM	> 100 µM	> 100 µM	> 100 µM	> 100 µM		> 100 µM	> 100 µM	> 100 µM	> 100 µM		> 100 µM
Cc1ccc(Nc2cc(=O)[nH]c(=O)[nH]2)cc1CS	> 100 µM	> 100 µM	> 100 µM	> 100 µM	> 100 µM	> 100 µM	> 100 µM	> 100 µM	> 100 µM	> 100 µM	> 100 µM	> 100 µM	> 100 µM	> 100 µM	> 100 µM	> 100 µM	> 100 µM	> 100 µM		> 100 µM
COc1cc2c(cc1OC)C1(c3ccccc3)ON=C(c3ccccc3)N1CS2 (stereo not given)	> 100 µM	> 100 µM	> 100 µM	> 100 µM		> 100 µM	> 100 µM		> 100 µM	> 100 µM	> 100 µM	> 100 µM	> 100 µM		> 100 µM	> 100 µM	> 100 µM	> 100 µM		> 100 µM
COc1cc(S(=O)(=O)Nc2ccc(-c3csc(/N=C\C=C\c4ccccc4)n3)cc2)ccc1Cl	> 100 µM	> 100 µM	> 100 µM	> 100 µM	> 100 µM	> 100 µM	> 100 µM		> 100 µM	57.7 µM	> 100 µM	> 100 µM	> 100 µM	56.7 µM	> 100 µM	59.8 µM	72.3 µM	> 100 µM	> 100 µM	> 100 µM
CCCCCCCSCC1OC(n2cnc3c(N)ncnc32)C(O)C1O (stereo not given)		> 100 µM	22.7 µM			4.51 µM	> 100 µM		62.4 µM	> 100 µM	> 100 µM		> 100 µM		> 100 µM	> 100 µM	44.8 µM	> 100 µM		
COC1CC(n2ccc(=O)[nH]c2=O)OC1CO (stereo not given)	> 100 µM	> 100 µM	> 100 µM	> 100 µM		> 100 µM	> 100 µM	> 100 µM	> 100 µM	> 100 µM	> 100 µM	> 100 µM	> 100 µM	> 100 µM	> 100 µM	> 100 µM	> 100 µM	> 100 µM	> 100 µM	> 100 µM
CCCC(=O)[O-].CCCC(=O)[O-].N.N.N.N.[Co+3].[O-][Cl+3]([O-])([O-])[O-]	> 100 µM	> 100 µM	> 100 µM	> 100 µM		> 100 µM	> 100 µM		> 100 µM		> 100 µM	> 100 µM	> 100 µM		> 100 µM	> 100 µM	> 100 µM	> 100 µM		> 100 µM
Nc1ccn(CC(CO)CC(c2ccccc2)P(=O)(O)O)c(=O)n1 (stereo not given)	> 100 µM	> 100 µM	> 100 µM	> 100 µM		> 100 µM	> 100 µM		> 100 µM	> 100 µM	> 100 µM	> 100 µM	> 100 µM		> 100 µM	> 100 µM	> 100 µM	> 100 µM		> 100 µM
Nc1ccc(-c2nc3ccc(Cc4ccc5nc(-c6ccc(N)cc6)oc5c4)cc3o2)cc1	> 100 µM	> 100 µM	> 100 µM			> 100 µM	> 100 µM	> 100 µM	> 100 µM	> 100 µM	> 100 µM	> 100 µM	> 100 µM	> 100 µM	> 100 µM	> 100 µM	> 100 µM	> 100 µM	> 100 µM	> 100 µM
N#Cc1nc(NC(=O)c2ccccc2)sc1N	> 10 µM	> 10 µM	> 10 µM	> 10 µM		> 10 µM	> 10 µM	> 10 µM	> 10 µM	> 10 µM	> 10 µM	> 10 µM	> 10 µM	> 10 µM	> 10 µM	> 10 µM	> 10 µM	> 10 µM	> 10 µM	> 10 µM
CSC1CC2C(CC1(C)SC)C2(C)C (stereo not given)	> 100 µM	> 100 µM	> 100 µM	> 100 µM		> 100 µM	> 100 µM		> 100 µM	73.1 µM	> 100 µM	> 100 µM	> 100 µM		> 100 µM	> 100 µM	56.8 µM	> 100 µM		> 100 µM
CCN1C(=O)C(N=[N+]=[N-])(c2ccccc2)C(=O)c2ccccc21 (stereo not given)	> 100 µM	> 100 µM	> 100 µM	> 100 µM		> 100 µM	> 100 µM		> 100 µM	> 100 µM	> 100 µM	> 100 µM	> 100 µM		> 100 µM	> 100 µM	> 100 µM	> 100 µM		> 100 µM
CC1=C(c2ccc(C)cc2)NC(=S)C(C)C(c2ccc(C)cc2)=N1 (stereo not given)	> 100 µM	> 100 µM	> 100 µM	> 100 µM		> 100 µM	> 100 µM	> 100 µM	> 100 µM	> 100 µM	> 100 µM		> 100 µM		> 100 µM	> 100 µM		> 100 µM	> 100 µM	> 100 µM
CN(C)C(=O)C(F)(F)C(c1ccc(C(F)(F)F)cc1)C1C(=O)N(C)C(=O)N(C)C1=O (stereo not given)	> 100 µM	> 100 µM	> 100 µM	> 100 µM			> 100 µM	> 100 µM		> 100 µM	> 100 µM		> 100 µM	> 100 µM	> 100 µM		> 100 µM	> 100 µM	> 100 µM	> 100 µM
Oc1c2c(c3c4c1N=CC=4CCN=3)C1(C=C(Br)C(O)C(Br)=C1)CCN2 (stereo not given)		12.5 µM	4.42 µM	33.4 µM		2.15 µM	3.09 µM			9 µM	2.64 µM	0.818 µM	4.49 µM		7.74 µM	4.17 µM	11.8 µM	21.5 µM	2.73 µM	28 µM
ClCCCC1COc2ccccc2O1 (stereo not given)	> 100 µM	> 100 µM	> 100 µM	> 100 µM		> 100 µM			> 100 µM	> 100 µM		> 100 µM	> 100 µM	> 100 µM	> 100 µM	> 100 µM		> 100 µM	> 100 µM	> 100 µM
COc1ccc(/C(Cl)=C(\CNc2ccccn2)c2ccccc2)cc1OC	> 100 µM	> 100 µM	> 100 µM	> 100 µM	> 100 µM	> 100 µM	> 100 µM	> 100 µM	> 100 µM	> 100 µM	> 100 µM	> 100 µM	> 100 µM	> 100 µM	> 100 µM	> 100 µM	> 100 µM	> 100 µM		> 100 µM
N#CC1C(=O)NC2=C(CCOc3c2ccc2ccccc32)C1c1ccc(F)cc1 (stereo not given)	32.8 µM	> 100 µM	> 100 µM	33.6 µM	43.8 µM				> 100 µM		74 µM	> 100 µM	71.9 µM	54.8 µM	42.4 µM	> 100 µM	> 100 µM		> 100 µM	24.7 µM
COc1cc(O)c2c(c1O)C(=O)c1cc(C)ncc1C2=O	> 50 µM	> 50 µM	> 50 µM	> 50 µM		> 50 µM	45.2 µM		> 50 µM	> 50 µM	27.2 µM	> 50 µM	> 50 µM		> 50 µM	> 50 µM	> 50 µM	> 50 µM		42.5 µM
C[N+]1(CCCC[N+]2(C)CCCCCCC2)CCCCCCC1	> 100 µM	> 100 µM	> 100 µM	> 100 µM	60.4 µM	> 100 µM	> 100 µM	> 100 µM	> 100 µM	> 100 µM	> 100 µM	> 100 µM	> 100 µM	> 100 µM	> 100 µM		> 100 µM	> 100 µM		> 100 µM
